Measurements published in patent US5114920A, “BU-3292T antibiotics” (priority 1988, dated 1992).
Values after ≈ are worked out from the molar mass of the structure shown. Starred links: 1 amine or outer side, 2 acyl side, 3 side chain; linkers in the order of their positions; H or OH if unused. Positions of bridges follow the written chain, without caps; N, C: chain ends. Non-standard residues stand in square brackets, D forms with d. Residues, ends and D or L forms follow the SMILES beside them. Chains are numbered I, II in the order given. Actinocin(9to1) = Cc1c2oc3c(C)ccc(C(=O)[*:1])c3nc-2c(C(=O)[*:2])c(N)c1=O; NMeV = CN[C@H](C(=O)O)C(C)C; Sar = CNCC(=O)O

Experiments:
[1] = test system: Clostridium perfringens A9635; assay type: cell-based; conditions: GAM agar
[2] = Body weight change in P388-bearing mice; conditions: QD × 3, ip
Protocol: (§1) BU-3292T components A and B were tested for in vitro cytotoxicity against murine and human tumor cells and for in vivo antitumor activity in mice. Actinomycin D was used as a reference compound in both in vitro and in vivo experiments. B16-F10 (murine melanoma) and Moser (human colorectal carcinoma) cells were grown to the logarithmic phase in enriched Eagle minimum essential medium (MEM) supplemented with fetal calf serum (FCS, 10%) and kanamycin (60 mcg/ml), harvested and inoculated into wells of a 96-well microtiter plate with test materials at the concentrations of 3.0×10^4 and 6.0×10^4 cells/ml, respectively. They were incubated at 37° C. in humidified atmosphere of 5% CO2 and 95% air for 72 hours. The cytotoxic activity was determined colorimetrically at 540 nm after staining viable cells with neutral red. […] Inhibitory effects of BU-3292T component A on macromolecule (DNA, RNA and protein) synthesis were determined in vitro. Cultured L1210 murine leukemia cells (5×10^5 cells/ml) were incubated with test materials at 37° C. for 15 minutes and then further incubated for 60 minutes after the addition of labelled precursor, ^3 H-thymidine, ^14 C-uridine or ^3 H-leucine, into the cultured mixtures. After washing with chilled 5% trichloroacetic acid solution, the radioactivity incorporated into the acid-insoluble fraction of the tumor cells was determined in a liquid scintillation counter. […] In vivo antitumor activities of BU-3292T components A and B were tested in tumor-bearing female CDF mice. After the intraperitoneal implantation of diluted ascitic fluid with 1.0 ×10^6 lymphocytic leukemia P388 cells into the mice, test compounds were administered intraperitoneally once a day on days 1, 2 and 3 (QD×3).

[3] = test system: B16-F10 (murine melanoma) cells; assay: In vitro cytotoxicity, neutral red staining; assay type: cell-based; conditions: B16-F10; 72 hours
Protocol: as §1

[4] = test system: Moser (human colorectal carcinoma) cells; assay: In vitro cytotoxicity, neutral red staining; assay type: cell-based; conditions: 72 hours
Protocol: as §1

[5] = test system: lymphocytic leukemia P388; assay: Antitumor activity against P388 leukemia (ip); assay type: in vivo, mice; conditions: QD × 3, ip
Protocol: as §1

[6] = test system: Protein synthesis in L1210 leukemia cells; assay: Inhibition of macromolecule synthesis, 3H-leucine incorporation; assay type: cell-based, murine; conditions: L1210 leukemia cells; 3H-leucine
Protocol: as §1

[7] = test system: Staphylococcus aureus smith; assay: Antimicrobial activity, serial two-fold agar dilution method; assay type: cell-based; conditions: Nutrient agar
Protocol: (§2) The antimicrobial activity of BU-3292T A and B was determined against aerobic and anaerobic bacteria and fungi by a serial two-fold agar dilution method. BU-3292T A and B are active against aerobic gram-positive bacteria, and weakly active against anaerobic gram-negative bacteria and fungi.

[8] = test system: Propionibacterium acnes A21933; assay: as above; assay type: cell-based; conditions: GAM agar
Protocol: as §2

[9] = test system: Trichophyton mentagrophytes D155; assay: as above; assay type: cell-based; conditions: Sabouraud dextrose agar
Protocol: as §2

[10] = test system: Klebsiella pneumoniae D11; assay: as above; assay type: cell-based; conditions: Nutrient agar
Protocol: as §2

[11] = test system: Streptococcus faecalis A9612; assay: as above; assay type: cell-based; conditions: Nutrient agar
Protocol: as §2

[12] = test system: Bacteroides fragilis A22693; assay: as above; assay type: cell-based; conditions: GAM agar
Protocol: as §2

[13] = test system: Bacillus subtilis PCI-219; assay: as above; assay type: cell-based; conditions: Nutrient agar
Protocol: as §2

[14] = test system: Staphylococcus epidermidis D153; assay: as above; assay type: cell-based; conditions: Nutrient agar
Protocol: as §2

[15] = test system: Candida albicans IAM 4888; assay: as above; assay type: cell-based; conditions: Sabouraud dextrose agar
Protocol: as §2

[16] = test system: Streptococcus pyogenes A20201; assay: as above; assay type: cell-based; conditions: Nutrient agar
Protocol: as §2

[17] = test system: Proteus mirabilis A9554; assay: as above; assay type: cell-based; conditions: Nutrient agar
Protocol: as §2

[18] = test system: Escherichia coli NIHJ; assay: as above; assay type: cell-based; conditions: Nutrient agar
Protocol: as §2

[19] = test system: Mucor spinosus IFO 5317; assay: as above; assay type: cell-based
Protocol: as §2

[20] = test system: Propionibacterium anaerobius A21905; assay: as above; assay type: cell-based; conditions: GAM agar
Protocol: as §2

[21] = test system: Micrococcus luteus 1001; assay: as above; assay type: cell-based; conditions: Nutrient agar
Protocol: as §2

[22] = test system: Proteus vulgalis A9436; assay: as above; assay type: cell-based; conditions: Nutrient agar
Protocol: as §2

[23] = test system: Cryptococcus neoformans IAM 4519; assay: as above; assay type: cell-based; conditions: Sabouraud dextrose agar
Protocol: as §2

[24] = test system: Fusarium moniliforme A2284; assay: as above; assay type: cell-based; conditions: Sabouraud dextrose agar
Protocol: as §2

[25] = test system: Staphylococcus aureus 209P; assay: as above; assay type: cell-based; conditions: Nutrient agar
Protocol: as §2

[26] = test system: Clostridium difficile A21675; assay: as above; assay type: cell-based; conditions: GAM agar
Protocol: as §2

[27] = test system: Pseudomonas aeruginosa A9930; assay: as above; assay type: cell-based; conditions: Nutrient agar
Protocol: as §2

[28] = test system: Aspergillus fumigatus IAM 2530; assay: as above; assay type: cell-based; conditions: Sabouraud dextrose agar
Protocol: as §2

[29] = test system: RNA synthesis in L1210 leukemia cells; assay: Inhibition of macromolecule synthesis, 14C-uridine incorporation; assay type: cell-based, murine; conditions: L1210 leukemia cells; 14C-uridine
Protocol: as §1

[30] = test system: DNA synthesis in L1210 leukemia cells; assay: Inhibition of macromolecule synthesis, 3H-thymidine incorporation; assay type: cell-based, murine
Protocol: BU-3292T components A and B were tested for in vitro cytotoxicity against murine and human tumor cells and for in vivo antitumor activity in mice. Actinomycin D was used as a reference compound in both in vitro and in vivo experiments. B16-F10 (murine melanoma) and Moser (human colorectal carcinoma) cells were grown to the logarithmic phase in enriched Eagle minimum essential medium (MEM) supplemented with fetal calf serum (FCS, 10%) and kanamycin (60 mcg/ml), harvested and inoculated into wells of a 96-well microtiter plate with test materials at the concentrations of 3.0×10^4 and 6.0×10^4 cells/ml, respectively. They were incubated at 37° C. in humidified atmosphere of 5% CO2 and 95% air for 72 hours. The cytotoxic activity was determined colorimetrically at 540 nm after staining viable cells with neutral red. […] Inhibitory effects of BU-3292T component A on macromolecule (DNA, RNA and protein) synthesis were determined in vitro. […] After washing with chilled 5% trichloroacetic acid solution, the radioactivity incorporated into the acid-insoluble fraction of the tumor cells was determined in a liquid scintillation counter. […]

For `Cc1c2oc3c(C)ccc(C(=O)N[C@@H]4C(=O)N[C@H](C(C)C)C(=O)N5CCC[C@H]5C(=O)N(C)CC(=O)N(C)[C@@H](C(C)C)C(=O)O[C@@H]4C)c3nc-2c(C(=O)N[C@@H]2C(=O)N[C@H](C(C)C)C(=O)N3CCC[C@H]3C(=O)N(C)CC(=O)N(C)[C@@H](C(C)C)C(=O)O[C@@H]2C)c(N)c1=O` [Actinomycin D, reference compound] (I: T[dV]P[Sar][NMeV] / II: T[dV]P[Sar][NMeV]; ester I:1-I:C, II:1-II:C; linker I:N-II:N via Actinocin(9to1)), the MIC [1] was 6.3 µg/mL (≈ 5.02 µM), the “Body weight change on day 4” value ([2]; 0.001 mg/kg/day) was “+1.3 g” and the “Body weight change on day 4” value ([2]; 0.01 mg/kg/day) was “+1.3 g”. For the same compound, the “Body weight change on day 4” value ([2]; 0.03 mg/kg/day) was “+0.5 g”, the “Body weight change on day 4” value ([2]; 0.1 mg/kg/day) was -2.0 g and the “Body weight change on day 4” value ([2]; 0.3 mg/kg/day) was -3.5 g. The IC50 [3] was 0.002 µg/mL (≈ 0.00159 µM), the IC50 [4] was 0.9 µg/mL (≈ 0.717 µM) and the “MST (Median survival time)” value ([5]; 0.001 mg/kg/day) was 11.0 days. For the same compound, the T/C ([5]; 0.001 mg/kg/day) was 110%, the “MST (Median survival time)” value ([5]; 0.003 mg/kg/day) was 13.5 days and the T/C ([5]; 0.003 mg/kg/day) was 135%. The “MST (Median survival time)” value ([5]; 0.01 mg/kg/day) was 14.0 days, the T/C ([5]; 0.01 mg/kg/day) was 140% and the “MST (Median survival time)” value ([5]; 0.03 mg/kg/day) was 15.0 days. For the same compound, the T/C ([5]; 0.03 mg/kg/day) was 150%, the “MST (Median survival time)” value ([5]; 0.1 mg/kg/day) was 16.0 days and the T/C ([5]; 0.1 mg/kg/day) was 160%. The “MST (Median survival time)” value ([5]; 0.3 mg/kg/day) was 7.0 days, the T/C ([5]; 0.3 mg/kg/day) was 70% and the “IC50 Protein” value [6] was over 100 µg/mL. The MIC [7] was 0.4 µg/mL (≈ 0.319 µM), the MIC [8] was 6.3 µg/mL (≈ 5.02 µM) and the MIC [9] was over 100 µg/mL. The MIC [10] was 25 µg/mL (≈ 19.9 µM), the MIC [11] was 0.1 µg/mL (≈ 0.0797 µM) and the MIC [12] was over 100 µg/mL. For the same compound, the MIC [13] was 0.2 µg/mL (≈ 0.159 µM), the MIC [14] was 0.4 µg/mL (≈ 0.319 µM) and the MIC [15] was over 100 µg/mL. It also gave an MIC [16] of 0.2 µg/mL (≈ 0.159 µM), an MIC [17] of over 100 µg/mL and an MIC [18] of over 100 µg/mL. For the same compound, the MIC ([19]; Mucor spinosus IFO 5317, Sabouraud dextrose agar) was over 100 µg/mL, the MIC ([19]; in vitro against Mucor spinosus IF05317) was over 100 µg/mL and the MIC [20] was 1.6 µg/mL (≈ 1.27 µM). It also gave an MIC [21] of 0.2 µg/mL (≈ 0.159 µM), an MIC [22] of over 100 µg/mL and an MIC [23] of over 100 µg/mL. For the same compound, the MIC [24] was over 100 µg/mL, the MIC [25] was 0.4 µg/mL (≈ 0.319 µM) and the MIC [26] was 25 µg/mL (≈ 19.9 µM). The MIC [27] was 100 µg/mL (≈ 79.7 µM), the MIC [28] was over 100 µg/mL and the “IC50 RNA” value [29] was 0.17 µg/mL (≈ 0.135 µM). The “IC50 DNA” value [30] was 8.1 µg/mL (≈ 6.45 µM).
